≈ marks a conversion by molar mass, not a printed value. Residues, ends and D or L forms follow the SMILES beside them. *: point of attachment. Decanoyl = CCCCCCCCCC(=O)*; Octanoyl = CCCCCCCC(=O)*
Key:
S. aureus PCM1650 = assay type: cell-based, Staphylococcus aureus; settings: Mueller–Hinton broth, inoculum 5 × 10^5 CFU/mL, 24 h, 37 °C, absorbance 600 nm, triplicate
Procedure: (§1) The evaluation of the antimicrobial activity of the synthesized lipopeptides was performed against the following reference bacterial and fungal strains: Staphylococcus aureus PCM 1650, Staphylococcus aureus PCM 2054, Staphylococcus epidermidis PCM 521, Staphylococcus epidermidis PCM 2118, Escherichia coli PCM 2057, Candida albicans PCM 2566, Candida glabrata CCM 8270, Candida krusei CCM 8271, Candida parapsilosis CCM 8260.
(§2) For the initial cultivation of the bacteria and fungi, Luria-Bertani broth (LB, Biomaxima, Lublin, Poland) and Sabouraud Dextrose broth (SB, Biomaxima, Lublin, Poland) were used, respectively. Antimicrobial properties of the compounds were analyzed through the determination of MIC (minimal inhibitory concentrations) by my means of the serial micro-dilution technique according to the guidelines of Clinical & Laboratory Standard Institute (CLSI) established for aerobic bacteria and yeasts.
(§3) According to the procedures, Mueller–Hinton broth (MHB) was used as the working medium for the analysis of the bacterial susceptibility, while RPMI-1640 (with L-glutamine, without sodium bicarbonate) growth medium buffered with MOPS (morpholinepropanesulfonic acid) and supplemented with 2% glucose was used for the experiments with the fungi.
(§4) The experiments were carried out for 24 h at 37 and 35 °C for the bacteria and fungi, respectively. Then, the absorbance was measured at 600 nm for each well of the 96-well plate using a microplate reader (Sunrise TM, Tecan Trading AG, Männedorf, Switzerland). Based on the obtained results, the degree of inhibition of the growth of microorganisms (expressed in %) in the presence of the tested compounds range was determined with respect to the control probes. Inoculated wells without peptide were treated as a positive control (100% growth), and the wells containing working medium only were defined as a negative control (0% growth). All measurements were repeated in triplicate.

S. aureus PCM2054 = assay type: cell-based, Staphylococcus aureus; settings: Mueller–Hinton broth, inoculum 5 × 10^5 CFU/mL, 24 h, 37 °C, absorbance 600 nm, triplicate
Procedure: as §1, §2, §3, §4

S. epidermidis PCM2118 = assay type: cell-based, Staphylococcus epidermidis; settings: Mueller–Hinton broth, inoculum 5 × 10^5 CFU/mL, 24 h, 37 °C, absorbance 600 nm, triplicate
Procedure: as §1, §2, §3, §4

S. epidermidis PCM521 = assay type: cell-based, Staphylococcus epidermidis; settings: Mueller–Hinton broth, inoculum 5 × 10^5 CFU/mL, 24 h, 37 °C, absorbance 600 nm, triplicate
Procedure: as §1, §2, §3, §4

E. coli PCM2057 = assay type: cell-based, Escherichia coli; settings: Mueller–Hinton broth, inoculum 5 × 10^5 CFU/mL, 24 h, 37 °C, absorbance 600 nm, triplicate
Procedure: as §1, §2, §3, §4

C. albicans PCM2566 = assay type: cell-based, Candida albicans; settings: RPMI-1640 with MOPS and 2% glucose, inoculum 5 × 10^3 CFU/mL, 24 h, 35 °C, absorbance 600 nm, triplicate
Procedure: as §1, §2, §3, §4

C. glabrata CCM8270 = assay type: cell-based, Candida glabrata; settings: RPMI-1640 with MOPS and 2% glucose, inoculum 5 × 10^3 CFU/mL, 24 h, 35 °C, absorbance 600 nm, triplicate
Procedure: as §1, §2, §3, §4

C. krusei CCM8271 = assay type: cell-based, Candida krusei; settings: RPMI-1640 with MOPS and 2% glucose, inoculum 5 × 10^3 CFU/mL, 24 h, 35 °C, absorbance 600 nm, triplicate
Procedure: as §1, §2, §3, §4

C. parapsilosis CCM 8260 = assay type: cell-based, Candida parapsilosis; settings: RPMI-1640 with MOPS and 2% glucose, inoculum 5 × 10^3 CFU/mL, 24 h, 35 °C, absorbance 600 nm, triplicate
Procedure: as §1, §2, §3, §4

[1] = system: human breast cancer cells (MCF-7 line, ATCC); assay: MTT cytotoxicity assay; assay type: cell-based; settings: IC50 against HaCaT divided by IC50 for MCF-7
Procedure: (§5) The prepared plates were further incubated for 48 h. […] The control cell viability was assumed to be 100%. Three independent experiments were carried out in three repetitions.

[2] = system: human prostate cancer cells (PC3 line, ATCC); assay: MTT cytotoxicity assay; assay type: cell-based; settings: IC50 against HaCaT divided by IC50 for PC3
Procedure: as §5

[3] = Dynamic light scattering of lipopeptide assemblies; assay type: physicochemical; settings: DLS, sonicated 10 min, incubated 1 h, 90° side scatter
Procedure: The hydrodynamic diameters of the lipopeptide nanoaggregates were examined by the Litesizer 500 (Anton-Paar GmbH, Graz, Austria) at 25 °C. The measurements were carried out at various lipopeptide concentrations ranging from 0.5 to 2 mM and from 0.25 to 2 mM, in water and PBS, respectively. Two-fold serial dilutions were used to obtain the sequential concentrations. Each sample was sonicated for 10 min followed by incubation for 1 h at 25 °C and transferred to the polystyrene cuvette. The detector was positioned at a side scatter position (90°). The analysis of the obtained results and report generation was performed with KalliopeTM software (Anton-Paar GmbH, Graz, Austria).

POPC liposomes = assay: CD, α-helix content in POPC liposomes; assay type: physicochemical; settings: 25 °C, peptide 0.15 mg/mL, 1.3 mM POPC; for α-Helix percentage, POPC: from ellipticity at 222 nm
Procedure: (§6) Large unilamellar vesicles (LUV) were obtained by extrusion of MLV liposomes through polycarbonate membrane filters with a pore diameter of 100 nm (Whatman International Ltd., Kent, UK) using a mini-extruder (Avanti Polar Lipids, Inc., Alabaster, AL, USA).
(§7) CD experiments were carried out at 25 °C using a Jasco J-815 spectropolarimeter in the wavelength range 185–260 nm. The concentration of the lipopeptides was 0.15 mg/mL. The CD spectra were recorded in water, PBS (pH 7.4), 1.3 mM POPC and 1.3 mM POPG. The results are plotted as the mean molar ellipticity per one amino acid residue (MRME, deg cm^2 dmol^−1) as a function of the wavelength (nm). Additionally, we performed a conformational analysis of the selected compounds in the presence of S. aureus cells. […] The mixtures were then incubated for 2 h before recording the CD spectra.
(§8) The percentage of the α-helical structure was calculated based on the mean molar ellipticity at 222 nm using the formula: fH=θ222−3000/−36000−3000·100% where θ222 corresponds to the value of the mean molar ellipticity at a wavelength of 222 nm.

POPG liposomes = assay: CD, α-helix content in POPG liposomes; assay type: physicochemical; settings: 25 °C, peptide 0.15 mg/mL, 1.3 mM POPG; for α-Helix percentage, POPG: from ellipticity at 222 nm
Procedure: as §6, §7, §8

POPG LUVs = assay: Isothermal titration calorimetry, binding to POPG LUVs; settings: ITC, 25 °C
Procedure: as §6
The thermodynamic parameters of the interactions of the lipopeptides with POPG and POPC liposomes were determined by isothermal titration calorimetry (ITC). Measurements were performed at 25 °C using an AutoITC microcalorimeter (MicroCal Inc., Northampton, MA, USA) with a 1.4491 mL sample and reference cells. The experiment consisted in the titration of a buffered peptide solution with a concentration of 0.05 and/or 0.07 mM with a buffered solution containing POPG or POPC LUVs with a lipid concentration of 1.3 and 1.8 mM (10.02 µL; 29 injections, 2 µL for the first injection only), as it was described previously. The result of the titration was a thermogram showing a series of peaks corresponding to the titration steps. A titration curve was obtained after integration of the peak areas. The obtained isotherms were fitted to the “one set of sites” or “two sets of sites” models available in the ORIGIN 7.0 (MicroCal Inc., Northampton, MA, USA), which made it possible to determine the enthalpy (ΔH), the binding constant (KITC) and the stoichiometry (N) of the interactions between the lipopeptide and the lipids. The following formula was used to calculate the entropy change (ΔS) and the Gibbs free energy (ΔG): ΔG=−RTln(55.5KITC)=ΔH−TΔS where: factor 55.5 is the molar concentration of water, R is the gas constant (1.986 cal·mol^−1·K^−1), and T is the absolute temperature.

S. aureus cells = assay: TEM of S. aureus cells treated with lipopeptide; assay type: cell-based, Staphylococcus aureus; settings: C8-LL-I at 25 µg/mL, 5 × 10^5 CFU/mL, incubated overnight at 37 °C
Procedure: The cells were centrifuged (8000 rpm, 15 min) and resuspended in fresh media to obtain a high-density cell suspension (5 × 10^5 CFU/mL). […] Afterward, the cells were centrifuged (8000 rpm, 15 min) and washed three times with PBS. The bacterial cells were fixed with 2.5% glutaraldehyde buffered at pH 6.5 with 0.1 M sodium cacodylate (Polysciences, Warrington, PA, USA) for 6 h at room temperature, as described earlier [52]. Additional fixation was performed with a 1% osmium tetroxide solution (Polysciences, Warrington, PA, USA) for 2 h at 4 °C. The cells were centrifuged and resuspended in 0.1 M cacodylate buffer, centrifuged again and dehydrated with ethanol. The bacteria were embedded in Epon 812 resin (Sigma-Aldrich, Darmstadt, Germany) at room temperature. A Leica UC7 ultramicrotome (Wetzlar, Germany) was used to obtain ultra-thin sections (55 nm). As contrasting agents, lead citrate and uranyl acetate were used. Cells were visualized using a Tecnai Spirit BioTWIN (EFI, Hillsboro, OR, USA) microscope at 120 kV.

POPC LUVs = assay: Isothermal titration calorimetry, binding to POPC LUVs; settings: ITC, 25 °C, 1.3 mM POPC to 0.05 mM C10-LL-I
Procedure: as §6
The thermodynamic parameters of the interactions of the lipopeptides with POPG and POPC liposomes were determined by isothermal titration calorimetry (ITC). Measurements were performed at 25 °C using an AutoITC microcalorimeter (MicroCal Inc., Northampton, MA, USA) with a 1.4491 mL sample and reference cells. The experiment consisted in the titration of a buffered peptide solution with a concentration of 0.05 and/or 0.07 mM with a buffered solution containing POPG or POPC LUVs with a lipid concentration of 1.3 and 1.8 mM (10.02 µL; 29 injections, 2 µL for the first injection only), as it was described previously. The result of the titration was a thermogram showing a series of peaks corresponding to the titration steps. A titration curve was obtained after integration of the peak areas. The obtained isotherms were fitted to the “one set of sites” or “two sets of sites” models available in the ORIGIN 7.0 (MicroCal Inc., Northampton, MA, USA), which made it possible to determine the enthalpy (ΔH), the binding constant (KITC) and the stoichiometry (N) of the interactions between the lipopeptide and the lipids. […]

[4] = 0.05 or 0.07 mM peptide titrated with 1.3 or 1.8 mM POPG LUVs, one set of sites model (C10-LL-I: two sets of sites, first line)

Row | Structure (SMILES) | MIC, S. aureus PCM1650 (S. aureus PCM1650) [µg/mL] | MIC, S. aureus PCM2054 (S. aureus PCM2054) [µg/mL] | MIC, S. epidermidis PCM2118 (S. epidermidis PCM2118) [µg/mL] | MIC, S. epidermidis PCM521 (S. epidermidis PCM521) [µg/mL] | MIC, E. coli PCM2057 (E. coli PCM2057) [µg/mL] | MIC, C. albicans PCM2566 (C. albicans PCM2566) [µg/mL] | MIC, C. glabrata CCM8270 (C. glabrata CCM8270) [µg/mL] | MIC, C. krusei CCM8271 (C. krusei CCM8271) [µg/mL] | MIC, C. parapsilosis CCM 8260 (C. parapsilosis CCM 8260) [µg/mL] | SI MCF-7 [1] | SI PC3 [2] | θ222/θ208, POPC (POPC liposomes) | α-Helix percentage, POPC (POPC liposomes) [%] | θ222/θ208, POPG (POPG liposomes) | α-Helix percentage, POPG (POPG liposomes) [%] | pKITC, POPG (POPG LUVs; [4]) | also measured
1 | CCCCCCCC(=O)N[C@H](C(=O)N[C@@H](CC(N)=O)C(=O)N[C@@H](Cc1c[nH]c2ccccc12)C(=O)N[C@@H](CCCCN)C(=O)N[C@@H](CCCCN)C(=O)N[C@H](C(=O)N[C@@H](CC(C)C)C(=O)NCC(=O)N[C@@H](CCCCN)C(=O)N[C@H](C(=O)N[C@H](C(=O)N[C@@H](CCCCN)C(=O)N[C@H](C(=O)N[C@@H](C)C(=O)N[C@@H](CCCCN)C(N)=O)C(C)C)[C@@H](C)CC)[C@@H](C)CC)C(C)C)C(C)C [C8-LL-I] (Octanoyl-VNWKKVLGKIIKVAK-NH2) | 12.5 (≈ 6.76 µM) | 12.5 (≈ 6.76 µM) | 6.25 (≈ 3.38 µM) | 6.25 (≈ 3.38 µM) | 25 (≈ 13.5 µM) | >50 | 25 (≈ 13.5 µM) | 12.5 (≈ 6.76 µM) | 12.5 (≈ 6.76 µM) | 1.42 | 0.76 | 0.85 | 48 | 0.90 | 27 | 3.98 ± 0.06 | hydrodynamic diameter, peak of highest scattering intensity ([3]; 0.25 mM in PBS pH 7.4, 25 °C): 3360 ± 165 nm; hydrodynamic diameter, peak of highest scattering intensity ([3]; 0.5 mM salt-free aqueous solution, 25 °C): 404 ± 37 nm; hydrodynamic diameter ([3]; 2 mM in PBS pH 7.4, 25 °C): 3844 ± 1031 nm; effect on S. aureus cells (TEM) (S. aureus cells): induced thinning of the membrane and its disintegration
2 | CCCCCCCCCC(=O)N[C@H](C(=O)N[C@@H](CC(N)=O)C(=O)N[C@@H](Cc1c[nH]c2ccccc12)C(=O)N[C@@H](CCCCN)C(=O)N[C@@H](CCCCN)C(=O)N[C@H](C(=O)N[C@@H](CC(C)C)C(=O)NCC(=O)N[C@@H](CCCCN)C(=O)N[C@H](C(=O)N[C@H](C(=O)N[C@@H](CCCCN)C(=O)N[C@H](C(=O)N[C@@H](C)C(=O)N[C@@H](CCCCN)C(N)=O)C(C)C)[C@@H](C)CC)[C@@H](C)CC)C(C)C)C(C)C [C10-LL-I] (Decanoyl-VNWKKVLGKIIKVAK-NH2) | 12.5 (≈ 6.66 µM) | 12.5 (≈ 6.66 µM) | 6.25 (≈ 3.33 µM) | 12.5 (≈ 6.66 µM) | 25 (≈ 13.3 µM) | >50 | 25 (≈ 13.3 µM) | 12.5 (≈ 6.66 µM) | 6.25 (≈ 3.33 µM) | 1.34 | 0.84 | 0.88 | 40 | 0.98 | 19 | 6.02 ± 1.09 | pKITC, POPG (POPG LUVs; two sets of sites model, second line): 4.69 ± 0.54; pKITC, POPC (POPC LUVs): 4.42 ± 0.24
